Here are results for 25 molecules from patent US11708344B2, “Flavone derivatives for the treatment and prophylaxis of hepatitis B virus disease” (Hoffmann-La Roche Inc., priority 2018, dated 2023).

Series [1] has as its system HBeAg (surrogate marker for cccDNA) in HepDES19 cells. Description: Engineered HepDES19 primary screen assay (HBeAg ELISA). Type of series: cell-based, HBV. The following applies: Hepatitis B virus, HepDES19, 120 h, read-out: IC50 (HBeAg level, HepDES19 primary screen assay), HepDES19 cells, 5 days compound incubation, HBeAg ELISA. A digest of the protocol: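 HepDES19 cells were induced by Tet withdrawal for 8 days, then treated with half-log compound dilutions (1% DMSO final) for 5 days at 37 °C. HBeAg was measured by ELISA as the cccDNA surrogate, viability by CCK-8, and IC50 from a 4-parameter logistic fit.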
(In general: In an ELISA, binding on a coated surface is turned into a signal by an enzyme label.)

The nature of series [2]: Human microsome stability assay. Type of series: in vitro ADME. Particulars: human liver microsomes, 1 μM test compound, 0.5 mg/mL microsomal protein, 37° C., pH 7.4, 0-30 minutes. The procedure, abridged:
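Compound (1 μM) incubated at 37 °C with human liver microsomes (0.5 mg/mL protein) in 100 mM potassium phosphate, pH 7.4, after 10 min preincubation; started with NADPH regenerating system. Sampled at 0–30 min, quenched with cold ACN; remaining parent quantified by LC-MS/MS, with no-NADPH controls.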
(Microsomes from liver hold many membrane-bound enzymes, among them those of drug oxidation.)

Consider `COc1cc(OC2CC(C(=O)O)C2)c(-c2cc(=O)c3c(O)ccc(Cl)c3o2)cc1OC` (centres unmarked) [Example B042, 3-[2-(8-chloro-5-hydroxy-4-oxo-chromen-2-yl)-4,5-dimethoxy-phenoxy]cyclobutanecarboxylic acid], for which, in series [1], the IC50 (as a rule, the concentration that inhibits the measured activity by half) amounted to 0.865 µM. In addition, the “Clearance of Human microsome” value in series [2] is 6.15 mL/min/kg.
As for `O=c1cc(-c2ccc(C(F)(F)F)cc2O[C@H]2C[C@@H](C(=O)NS(=O)(=O)C3CC3)C2)oc2c(Cl)cccc12` [Example B043-A, cis-3-[2-(8-chloro-4-oxo-chromen-2-yl)-5-(trifluoromethyl)phenoxy]-N-cyclopropylsulfonyl-cyclobutanecarboxamide], in series [1], the half-maximal inhibitory concentration (IC50) came to 1.4 µM. Further, in series [2], the “Clearance of Human microsome” value came to 6.15 mL/min/kg.
Take `CS(=O)(=O)NC(=O)[C@H]1C[C@@H](Oc2cc(Br)ccc2-c2cc(=O)c3cccc(Cl)c3o2)C1` [Example B044-A, cis-3-[5-bromo-2-(8-chloro-4-oxo-chromen-2-yl)phenoxy]-N-methylsulfonyl-cyclobutanecarboxamide]: in series [1], the IC50 worked out at 4.62 µM. Also, the “Clearance of Human microsome” value in series [2] amounted to 6.15 mL/min/kg.
Take `CS(=O)(=O)NC(=O)[C@H]1C[C@H](Oc2cc(Br)ccc2-c2cc(=O)c3cccc(Cl)c3o2)C1` [Example B044-B, trans-3-[5-bromo-2-(8-chloro-4-oxo-chromen-2-yl)phenoxy]-N-methylsulfonyl-cyclobutanecarboxamide]: in series [1], the IC50 is 3.72 µM. Also, the “Clearance of Human microsome” value in series [2] came out at 6.15 mL/min/kg.
On the same counts, the results for `CS(=O)(=O)NC(=O)[C@H]1C[C@H](Oc2cc(OC(F)(F)F)ccc2-c2cc(=O)c3cccc(Cl)c3o2)C1` [Example B047-B, Trans-3-[2-(8-chloro-4-oxo-chromen-2-yl)-5-(trifluoromethoxy)phenoxy]-N-methylsulfonyl-cyclobutanecarboxamide] are 3.76 µM and 6.15 mL/min/kg.
The corresponding values for `CS(=O)(=O)NC(=O)[C@H]1C[C@@H](Oc2cc(C(F)(F)F)ccc2-c2cc(=O)c3cccc(Cl)c3o2)C1` [Example B048-A, Cis-3-[2-(8-chloro-4-oxo-chromen-2-yl)-5-(trifluoromethyl)phenoxy]-N-methylsulfonyl-cyclobutanecarboxamide] are 0.632 µM and 6.15 mL/min/kg.
On the same counts, the results for `CS(=O)(=O)NC(=O)[C@H]1C[C@H](Oc2cc(C(F)(F)F)ccc2-c2cc(=O)c3cccc(Cl)c3o2)C1` [Example B048-B, Trans-3-[2-(8-chloro-4-oxo-chromen-2-yl)-5-(trifluoromethyl)phenoxy]-N-methylsulfonyl-cyclobutanecarboxamide] are 3.08 µM and 6.15 mL/min/kg.
With `Cc1cc(-c2cc(=O)c3cccc(Cl)c3o2)c(O[C@H]2C[C@@H](C(=O)NS(C)(=O)=O)C2)cc1Br` [Example B049-A, Cis-3-[5-bromo-2-(8-chloro-4-oxo-chromen-2-yl)-4-methyl-phenoxy]-N-methylsulfonyl-cyclobutanecarboxamide], the IC50 in series [1] was determined as 12.2 µM. Moreover, in series [2], the “Clearance of Human microsome” value was determined as 7.5 mL/min/kg.
On the same counts, the results for `COc1cc(O[C@H]2C[C@@H](C(=O)NS(C)(=O)=O)C2)c(-c2cc(=O)c3cccc(Cl)c3o2)cc1C` [Example B050-A, Cis-3-[2-(8-chloro-4-oxo-chromen-2-yl)-5-methoxy-4-methyl-phenoxy]-N-methylsulfonyl-cyclobutanecarboxamide] are 7.03 µM and 6.15 mL/min/kg.
On the same counts, the results for `COc1cc(-c2cc(=O)c3cccc(Cl)c3o2)c(O[C@H]2C[C@@H](C(=O)NS(C)(=O)=O)C2)cc1Br` [Example B053-A, Cis-3-[5-bromo-2-(8-chloro-4-oxo-chromen-2-yl)-4-methoxy-phenoxy]-N-methylsulfonyl-cyclobutanecarboxamide] are 3.36 µM and 6.15 mL/min/kg.
Regarding `COc1cc(-c2cc(=O)c3cccc(Cl)c3o2)c(O[C@H]2C[C@H](C(=O)NS(C)(=O)=O)C2)cc1Br` [Example B053-B, Trans-3-[5-bromo-2-(8-chloro-4-oxo-chromen-2-yl)-4-methoxy-phenoxy]-N-methylsulfonyl-cyclobutanecarboxamide], in series [1], the 50% inhibitory concentration (IC50) came to 0.912 µM. Further, the “Clearance of Human microsome” value in series [2] is 6.15 mL/min/kg.
On the same counts, the results for `COc1cc(-c2cc(=O)c3cccc(Cl)c3o2)c(O[C@H]2C[C@@H](C(=O)NS(=O)(=O)C3CC3)C2)cc1Br` [Example B054, Cis-3-[5-bromo-2-(8-chloro-4-oxo-chromen-2-yl)-4-methoxy-phenoxy]-N-cyclopropylsulfonyl-cyclobutanecarboxamide] are 1.65 µM and 6.15 mL/min/kg.
On the same counts, the results for `COc1cc(O[C@H]2C[C@@H](C(=O)NS(=O)(=O)C3CC3)C2)c(-c2cc(=O)c3cccc(Cl)c3o2)cc1Br` [Example B056-A, Cis-3-[4-bromo-2-(8-chloro-4-oxo-chromen-2-yl)-5-methoxy-phenoxy]-N-cyclopropylsulfonyl-cyclobutanecarboxamide] are 9.44 µM and 6.48 mL/min/kg.
On the same counts, the results for `COc1cc(OC2CC(C(=O)NS(C)(=O)=O)C2)c(-c2cc(=O)c3cccc(Cl)c3o2)cc1OC` (centres unmarked) [Example B057, 3-[2-(8-chloro-4-oxo-chromen-2-yl)-4,5-dimethoxy-phenoxy]-N-methylsulfonyl-cyclobutanecarboxamide] are 1.08 µM and 6.15 mL/min/kg.
As for `NS(=O)(=O)CCCOc1cc(C(F)(F)F)ccc1-c1cc(=O)c2cccc(Cl)c2o1` [Example B072, 3-[2-(8-chloro-4-oxo-chromen-2-yl)-5-(trifluoromethyl)phenoxy]propane-1-sulfonamide], in series [1], the IC50 was 0.95 µM. In addition, the “Clearance of Human microsome” value in series [2] was 8.89 mL/min/kg.
Turning to `O=C(O)[C@@H]1C[C@@H](Oc2cc(C(F)(F)F)ccc2-c2cc(=O)c3cccc(Cl)c3o2)CN1S(=O)(=O)C1CC1` [Example B077], in series [1], the half-maximal inhibitory concentration (IC50) was 0.657 µM. For the same molecule, in series [2], the “Clearance of Human microsome” value amounted to 6.15 mL/min/kg.
The corresponding values for `O=C(O)[C@@H]1C[C@H](Oc2cc(C(F)(F)F)ccc2-c2cc(=O)c3cccc(Cl)c3o2)CN1S(=O)(=O)C1CC1` [Example B078, (2S,4S)-4-[2-(8-chloro-4-oxo-chromen-2-yl)-5-(trifluoromethyl)phenoxy]-1-cyclopropylsulfonyl-pyrrolidine-2-carboxylic acid] are 0.541 µM and 6.15 mL/min/kg.
The corresponding values for `O=C(O)[C@@H]1C[C@H](Oc2cc(C(F)(F)F)ccc2-c2cc(=O)c3cccc(Cl)c3o2)CN1S(=O)(=O)c1ccccc1` [Example B080, (2S,4S)-1-(benzenesulfonyl)-4-[2-(8-chloro-4-oxo-chromen-2-yl)-5-(trifluoromethyl)phenoxy]pyrrolidine-2-carboxylic acid] are 1.2 µM and 6.15 mL/min/kg.
The corresponding values for `Cc1cc(-c2cc(=O)c3cccc(Cl)c3o2)c(O[C@H]2C[C@@H](C(=O)O)N(S(=O)(=O)c3ccccc3)C2)cc1Cl` [Example B084, (2S,4S)-1-(benzenesulfonyl)-4-[5-chloro-2-(8-chloro-4-oxo-chromen-2-yl)-4-methyl-phenoxy]pyrrolidine-2-carboxylic acid] are 0.533 µM and 6.15 mL/min/kg.
For `O=C(O)[C@@H]1C[C@H](Oc2cc(Br)ccc2-c2cc(=O)c3cccc(Cl)c3o2)CN1C(=O)c1ccccc1` [Example B086], the IC50 in series [1] worked out at 4.89 µM. The “Clearance of Human microsome” value in series [2] amounted to 6.15 mL/min/kg.
On to `O=C(O)[C@H]1C[C@H](Oc2cc(C(F)(F)F)ccc2-c2cc(=O)c3cccc(Cl)c3o2)CN1S(=O)(=O)c1ccccc1` [Example B087, (2R,4S)-1-(benzenesulfonyl)-4-[2-(8-chloro-4-oxo-chromen-2-yl)-5-(trifluoromethyl)phenoxy]pyrrolidine-2-carboxylic acid], for which the half-maximal inhibitory concentration (IC50) in series [1] was found to be 3 µM. The “Clearance of Human microsome” value in series [2] worked out at 6.15 mL/min/kg.
The corresponding values for `O=C(O)[C@H]1C[C@@H](Oc2cc(C(F)(F)F)ccc2-c2cc(=O)c3cccc(Cl)c3o2)CN1S(=O)(=O)c1ccccc1` [Example B088, (2R,4R)-1-(benzenesulfonyl)-4-[2-(8-chloro-4-oxo-chromen-2-yl)-5-(trifluoromethyl)phenoxy]pyrrolidine-2-carboxylic acid] are 1.85 µM and 6.15 mL/min/kg.
Regarding `O=C(O)COCCCOc1cc(C(F)(F)F)ccc1-c1cc(=O)c2cccc(Cl)c2o1` [Example C001, 2-[3-[2-(8-chloro-4-oxo-chromen-2-yl)-5-(trifluoromethyl)phenoxy]propoxy]acetic acid], in series [1], the IC50 worked out at 3.05 µM. Also, the “Clearance of Human microsome” value in series [2] was 6.15 mL/min/kg.
Regarding `COC(=O)C1CC(OCCOc2cc(Br)ccc2-c2cc(=O)c3cccc(Cl)c3o2)C1` (centres unmarked) [Example C003a, methyl 3-[2-[5-bromo-2-(8-chloro-4-oxo-chromen-2-yl)phenoxy]ethoxy]cyclobutanecarboxylate], the IC50 in series [1] amounted to 0.4 µM. Moreover, the “Clearance of Human microsome” value in series [2] came to 6.15 mL/min/kg.
In the case of `O=C(O)COCCOc1cc(C(F)(F)F)ccc1-c1cc(=O)c2cccc(Cl)c2o1` [Example C005, 2-[2-[2-(8-chloro-4-oxo-chromen-2-yl)-5-(trifluoromethyl)phenoxy]ethoxy]acetic acid], the IC50 in series [1] came to 17.7 µM. In addition, the “Clearance of Human microsome” value in series [2] is 8.08 mL/min/kg.
